Measured values published in patent US20090285898A1, “COMBINATION OF DEHYDROEPIANDROSTERONE OR DEHYDROEPIANDROSTERONE-SULFATE WITH AN ANTICHOLINERGIC BRONCHODILATOR FOR TREATMENT OF ASTHMA OR CHRONIC OBSTRUCTIVE PULMONARY DISEASE” (priority 2003, published 2009).
“And” between values parts separate entries of the source, which are not always exact repeats. Equal values may be shown once.

What was measured:
Human ASM cells = assay: EGF induced ASM proliferation ([3H]-thymidine incorporation); assay type: cell-based; details: for effect on EGF response (ASM proliferation): Mch 10 μM, atropine alone, DHEA-S in the presence or absence of Mch and atropine
Experimental: Human ASM cells were obtained from the distal trachea of transplant donors in compliance with the University of Pennsylvania's Institutional Review Board. Distal trachealis was dissected free of connective tissue and enzymatically digested to yield approximately 1×10^4 human ASM cells. These cells were then grown to confluence in 10% fetal bovine serum and quiesced in serum-free media containing 1% bovine serum albumin for 24 hours. […] After the initial incubation, cells were then exposed to [^3H]-thymidine and DNA synthesis was measured over 24 hours using thymidine incorporation. The cells were scraped and placed on filters which were then counted using a beta counter. All experiments were repeated in a minimum of three human ASM cell lines. All conditions per experiment were run with six replicates.

[1] = Particle size after jet milling or spray drying (Malvern Mastersizer X, light microscope); assay type: physicochemical; details: two batches
Experimental: Approximately 1 g sample was passed through the jet mill, once, and approximately 2 g sample were passed through the jet mill twice. […] The resulting solution was sonicated for 3 minutes and appeared fully dispersed. The dispersed solutions were tested on a Malvern Mastersizer X with a small volume sampler (SVS) attachment. One sample of dispersed material was tested 5 times. The median particle size or D (v, 0.5) of unmilled material was 52.56 μm and the % RSD (relative standard deviation) was 7.61 for the 5 values. The D (v, 0.5) for a single pass through the jet mill was 3.90 μm and the % RSD was 1.27, and the D (v, 0.5) from a double pass through the jet mill 3.25 μm and the % RSD was 3.10.
The solution was spray-dried with a B-191 Mini Spray-Drier (Buchi, Flawil, Switzerland) with an inlet temperature of 55° C., outlet temperature of 40° C., at 100% aspirator, at 10% pump, nitrogen flow at 40 mbar and spray flow at 600 units. The spray-dried product was suspended in hexane and Span85 surfactant added to reduce agglomeration. The dispersions were sonicated with cooling for 3-5 minutes for complete dispersion and the dispersed solutions tested on a Malvern Mastersizer X with a Small Volume Sampler (SVS) attachment. […] Visual examination by light microscope of the dispersions of each batch confirmed that spray drying produced small respirable size particles. […]

HT-29 SF cells [2] = assay: Reversal of DHEA effect on cell cycle; assay type: cell-based, human; details: 25 FM DHEA; supplemented medium; 48 and 72 hours
HT-29 SF cells [3] = assay: DHEA effect on cell growth; assay type: cell-based, human; details: 0, 12.5, 25, 50, or 200 μM; 0-72 hours
[4] = Solubility of DHEA-S in NaCl solutions; assay type: physicochemical; details: 20 mM Na+; Ksp 1316 mM^2; 15° C.
Description: Inhalation of pure water can produce a cough stimulus. […] The temperature effect is weaker at high NaCl concentrations.

[5] = Short-term solution stability of DHEA-S nebulizer formulation; assay type: physicochemical; details: 10 mg/mL in 0.12% NaCl
Experimental: Aliquots of this solution are filled into clear glass vials and stored at RT (24-26° C.) and at 40° C. The samples are checked daily for DHEA-S content, DHEA content, and appearance. For each time point, duplicate samples are withdrawn and diluted from each vial. […] The study is stopped on day three. […] The solution should easily be stable for the day of reconstitution in a clinical trial. The following section describes the aerosol properties of this formulation.

[6] = Nebulizer studies (Pari LC Plus, by-pass collector and impactor); details: 0.12% NaCl
Experimental: The nebulizer is filled with 5 mL of solution and nebulization is continued until the output became visually insignificant (4½ to 5 min.). Nebulizer solutions are tested using a California Instruments AS-6 6-stage impactor with a USP throat. The impactor is run at 30 L/min for 8 s to collect a sample following one minute of nebulization time. At all other times during the experiment, the aerosol is drawn through the by-pass collector at approximately 33 L/min. The collection apparatus, nebulizer, and impactor are rinsed with mobile phase and assayed by HPLC. […] This volume is selected as the practical upper limit for use in a clinical study.

**Q.** Which “effect on EGF response (ASM proliferation)” value (“effect on EGF response” for short) (Human ASM cells) does the source give for `CC(=O)OC(C)C[N+](C)(C)C` (centres unmarked) here?
**A.** further augmented

**Q.** Which results are given for `C[C@]12CC[C@H](OS(=O)(=O)[O-])CC1=CC[C@@H]1[C@@H]2CC[C@]2(C)C(=O)CC[C@@H]12.[Na+]` [Anhydrous DHEA-S]?
**A.** mean particle size of spray dried material ([1]; Malvern Mastersizer X): 5.07±0.70 μm and 6.66±0.91 μm; mean particle size of spray dried material ([1]; visual examination by light microscope): 2.4 μm and 2.0 μm

**Q.** With `CC(C)CCC[C@@H](C)[C@H]1CC[C@H]2[C@@H]3CC=C4C[C@@H](O)CC[C@]4(C)[C@H]3CC[C@]12C` [CH, cholesterol] as the compound, how does the “prevention of DHEA-induced S phase depletion (G1 arrest)” value (HT-29 SF cells [2]) read?
**A.** very little effect at 48 hours and no effect at 72 hours

**Q.** With `C[C@]12CC[C@H](O)CC1=CC[C@@H]1[C@@H]2CC[C@]2(C)C(=O)CC[C@@H]12` [DHEA, 3β-hydroxyandrost-5-en-17-one] as the compound, how does the “effect on growth of HT-29 SF cells” value (HT-29 SF cells [3]) read?
**A.** time- and dose-dependent inhibition of growth

**Q.** With `C[C@]12CC[C@H](OS(=O)(=O)[O-])CC1=CC[C@@H]1[C@@H]2CC[C@]2(C)C(=O)CC[C@@H]12.[Na+]` [DHEA-S, sodium dehydroepiandrostenone sulfate] as the compound, how does the “calculated DHEA-S solution concentration” value [4] read?
**A.** 27.5 mM

**Q.** And the “solution appearance on storage” value ([5]; 40° C.)?
**A.** became cloudy after two days of storage

**Q.** And the “solution appearance on storage” value ([5]; RT (24-26° C.))?
**A.** slight precipitate is observed on the third day

**Q.** What about the “highest solution concentration for clinical trial formulation (no precipitate during nebulization)” value [6] of the same compound?
**A.** approximately 7.5 mg/mL

**Q.** What about the “effect on EGF response” value (Human ASM cells) of the same compound?
**A.** attenuate the EGF response

**Q.** For `C[C@@](O)(CCO)CC(=O)O` [MVA, mevalonic acid], which “prevention of DHEA-induced S phase depletion (G1 arrest)” value (HT-29 SF cells [2]) is on record?
**A.** partially prevented this effect in the initial 48 hours but not after 72 hours

**Q.** For `CN1[C@@H]2CC[C@H]1C[C@@H](OC(=O)C(CO)c1ccccc1)C2` (some centres unmarked) [atropine], which “effect on Mch augmentation of EGF response” value (Human ASM cells; EGF plus 10 μM Mch) is on record?
**A.** reverse the effects of Mch

**Q.** And the “effect on EGF response” value (Human ASM cells)?
**A.** no effect on EGF response

**Q.** Which “increase in ASM proliferation” value (Human ASM cells; EGF (1 ng/ml), thymidine incorporation) does the source give for “EGF: growth factor used to induce DNA synthesis in human ASM cells (NSDSECPLSHDGYCLHDGVCMYIEALDKYACNCVVGYIGERCQYRDLKWWELR; Epidermal growth factor; UniProt P01133 971-1023, looked up)” here?
**A.** 8 fold
